What was measured:
HUVEC [1] = assay: HUVEC viability / cytoprotection under H2O2 induced oxidative stress (MTT); assay type: cell-based, Human
[2] = test system: plasminogen activating inhibitor-1 (PAI-1); assay: DEX induced PAI-1 in human trabecular meshwork cells (western blot); assay type: cell-based; details: DEX 100 nM, compound 100 μM, 48 hr, conditioned medium
Method: Briefly, cells were plated at a density of 2×10^5 cells per well and were treated with DEX (100 nM) or vehicle (ethanol) in the presence of 100 μM of SA-1, SA-2, SA-9, SA-10 and PBA (positive control) for 48 hr. Conditioned medium was collected for western blot. Experiments were performed in triplicates.
In vitro plasminogen activating inhibitor-1 (PAI-1) activity. Human primary trabecular meshwork (hTM) cells were plated in 6-well plates at a density of 2×10^5 cells per well and were treated with dexamethasone (DEX, 100 nM) or vehicle (ethanol) in the presence of test compounds (100 μM) for 48 hr. Conditioned medium was collected for Western Blot. Experiments were performed in triplicates […].

[3] = test system: Nitric oxide synthetase (NOS); assay: NOS activating activity in HUVEC under H2O2 stress; assay type: cell-based, Human; details: for level of NOS: HUVEC treated with H2O2, both doses 0.05 μM and 0.5 μM; for eNOS activity: HUVEC under H2O2 induced oxidative stress
Method: In vitro Nitric oxide synthetase (NOS) activating activity. Human Umbilical Vascular Endothelial Cells (HUVECs) were plated at a density of 2×10^5 cells per well and were treated with or without H2O2 (200 μM) and compounds at different concentrations. NOS knock-down samples (NOSi) were cells exposed to a competitive NOS inhibitor L-NNA at 50 μM. After 24-hour-treatment, total NOS activity from treated cells was quantified using OxiSelect™ Intracellular Nitric Oxide (NO) Assay Kit where NOS activity correlates to fluorescent intensity^5.

[4] = test system: human trabecular meshwork cells; assay: cytoprotection of human trabecular meshwork cells under TBHP induced oxidative stress; assay type: cell-based; details: for concentration providing cytoprotection: oxidative stress induced cell death model
[5] = test system: mouse hippocampal neural cells (HT-22); assay: cytotoxicity / proliferation in mouse hippocampal neural cells (HT-22); details: for cell proliferation: different doses
[6] = pyrogallol induced ROS (superoxide) scavenging assay; assay type: biochemical; details: Concentration 250 μM; Time 0.5 h
[7] = test system: primary microglia isolated from rat retina; assay: TII induced cell death in primary microglia (LDH assay); assay type: cell-based; details: 10 μM, 24 h
endothelial cells = assay: transwell chemotaxis EC migration under oxidative stress; assay type: cell-based, Human
Method: Cell migration studies. Transwell chemotaxis migration studies were conducted to study effects of SA-2 and SA-10 drugs on the migration of endothelial cells under stress conditions. To this, ECs were seeded at 50,000 cells/cm^2 on upper compartment (low serum media with 200 μM H2O2) and attracted to migrate through 8 μm-pore membrane by chemotaxis (SA compounds dissolved in low serum media with 200 μM H2O2) added in lower compartment. At 12 hours, migrated cells were fixed with 4% paraformaldehyde and stained with crystal violet prior to imaging and counting by Cell counter on ImageJ.

[8] = test system: primary microglia isolated from rat retina; assay: TII induced nitric oxide in primary microglia (Greiss assay); assay type: cell-based; details: 10 μM, 24 h
[9] = test system: primary microglia isolated from rat retina; assay: TII induced ROS in primary microglia (DCFDA assay); details: for TII induced ROS production: 10 μM, 24 h, TII = TNF-α, IL-1β, IFN-γ
HUVEC [10] = assay: in vitro angiogenesis / tube formation under oxidative stress; assay type: cell-based, Human
Method: In vitro angiogenesis studies. Cultrex reduced growth factor basement membrane extracted gel (Cat. 3433-005-01, R&D Systems, Inc.) was coated on bottom of μ-Slide angiogenesis wells (Cat. 81506, iBidi GmbH Co.). ECs at early passages (passage 6th or earlier) were then seeded on gel at a seeding density of 25,000 cells/cm^2. Next, cells were treated with treatment groups (SA-2, SA-10, SA-10 NPs, VEGF) under stress condition (200 μM H2O2). After 12 hours of incubation, formation of new microtubes were visualized and captured on phase contrast microscopes. Images were then stacked and processed with Angiogenesis analyzer on ImageJ.

ROS in HUVEC cells = assay: ROS scavenging in HUVEC under oxidative stress (DCFDA assay); assay type: cell-based, Human; details: H2O2 induced oxidative stress, SA-9 at 0.05 μM

CC1(C)CC([n+]2cc(N)on2)CC(C)(C)N1O [SA-2, reference compound]
effective range of concentration to protect ECs (HUVEC [1]; ECs under H2O2 stress): up to 1 μM
doses showing cytoprotective activity (HUVEC [1]; HUVEC, H2O2 induced oxidative stress): decreased as the dose increased
DEX induced PAI-1 [2]: didn't show such activity
level of NOS [3]: increased the level of NOS significantly
eNOS activity [3]: induced eNOS signals
concentration providing cytoprotection [4]: 16 µM
cell proliferation [5]: didn't show such trend
AUCt=0 to t=3h [6]: 3338

Nc1c[n+](C2CCSCC2)no1 [SA-9]
cytoprotective activity (HUVEC [1]; HUVEC, H2O2 induced oxidative stress, different concentrations): potent cytoprotective activity
TII induced cell death (LDH release) [7]: decrease the cell death
EC migration (endothelial cells): induce EC migration
EC migration (FIG. 6) (endothelial cells; 0.5 μM, transwell): induce EC migration
TII induced nitric oxide (nitrite) production [8]: decrease
TII induced ROS production [9]: decrease
activation of microglia by the compound itself ([9]; rat primary microglia, without TII): did not activate
level of NOS [3]: increased the level of NOS significantly
eNOS activity [3]: increase in eNOS activity
cytoprotective activity ([4]; TBHP (300 μM) induced oxidative stress): superior cytoprotective activity
concentration providing cytoprotection [4]: 8 µM
cytotoxicity ([5]; different concentrations): not toxic to neural cells
cell proliferation [5]: dose dependent increase in cell proliferation
AUCt=0 to t=3h [6]: 3402
angiogenesis and new tube formation (HUVEC [10]; HUVEC under oxidative stress (200 μM H2O2)): induce angiogenesis and new tube formation
angiogenesis and new tube formation (FIG. 5) (HUVEC [10]; SA-9 0.5 μM, SA-10 0.005 μM, H2O2 200 μM, low serum media): induce angiogenesis and new tube formation
ROS scavenging activity in DCFDA assay (ROS in HUVEC cells): scavenged ROS

O=c1cc(-c2ccccc2)oc2cc(O)c(O)c(O)c12 [Baicalein, baicalein]
AUCt=0 to t=3h [6]: 1944

[NH-]c1c[n+](N2CCOCC2)no1 [SIN-1, reference compound]
TII induced ROS production [9]: did not
AUCt=0 to t=3h [6]: 1856

— patent publication US12234228B2, “Nitric oxide donor and anti-oxidant compounds” (University of North Texas Health Science Center, priority 2018, dated 2025)
